Entries after “also recorded” stand apart in the source; their conditions may differ.

One assay deals with RPTEC. The experiment in a line: Cell killing, non-tumor RPTEC. In kind it is cell-based, human. On the set-up: key: Sensitive; Resistant. Particulars: renal proximal tubul cell. Here is the method: (§1) Briefly described, 2-3×10^3 cells/well in 100 μL of culture medium may be plated in 96 well plates and incubated overnight at 37° C., 5% CO2. The MET-ADCs, MET antibody(ies), control MMAE or control hIgG4 conjugated to MMAE with cysteine conjugation antibody(ies) may be diluted 1:3 in serum-free culture medium starting from 100 nM (final) in 50 μL as 3× concentrations to the HT-29 cells. At the end of an additional 5-6 days of cell growth at 37° C. in a humidified incubator with 5% CO2, the plates may be equilibrated to room temperature for 30 minutes and 100 μL/well of CellTiter-Glo® reagent (Promega Corp., Fitchburg, Wis.) may then be added to assess cell viability. Cell viability may be determined by measuring luminescence.
(§2) Various tumor cell lines and normal human cells may be tested for MET-ADC induced cell killing activity essentially as described above in Example 10 as assessed for MET receptor density. MET cell surface density was determined by indirect immunofluorescence staining of cell surface antigens on cultured cells using QIFIKIT (Dako). […] Following a forty-five minute incubation, cells may be incubated for 1 hour on ice with FITC conjugated antibody diluted 1:50 in FACS buffer. Then cells may be washed and receptor numbers may be determined by indirect immunofluorescence staining of the QIFIKIT beads using a Becton Dickinson LSRII flow cytometer.

The test system of a further assay is Aspc-1. The experiment in a line: Cell killing, Aspc-1. In kind it is cell-based, human. The conditions noted are these: Aspc-1, PANC Ca. Set-up: key: Sensitive; Resistant. Here is the method:
as §1, §2

A further assay deals with Calu-6 xenograft. The experiment in a line: Calu-6 non-small-cell-lung cancer xenograft model. In kind it is in vivo, mouse. Here is the method: (§3) Female athymic nude mice age 6- to 7-weeks old are available commercially, including from Harlan Laboratories (Indianapolis, Ind.). The mice are allowed to acclimate for one week and fed ad libitum on a normal low fat (4.5%) diet, which may be continued for the duration of the study. Tumor cells may be purchased from ATCC and may be cultured in cell culture media such as RPMI 1640 (Life Technologies) with L-glutamine, 25 mM HEPES supplemented with 10% FBS and 1 mM Na Pyruvate. Cells may be detached, washed with serum free medium and then resuspended at a final concentration of 50×10^6 cells/mL in serum free RPMI 1640. Tumor cells, approximately 5×10^6, may be injected subcutaneously in the rear flank of subject mice in a 1:1 mixture of serum free growth medium and Matrigel (Becton Dickinson, Bedford, Mass.). Tumor and body weight measurements may be performed twice weekly. Prior to treatment, mice can be randomized based on tumor size using a randomization algorithm. Treatments may be started when the average tumor volume reaches 100 mm^3. […]
(§4) MET-ADCs and control hIgG4-MMAE may be prepared in Phosphate Buffered Saline (PBS) prior to dose. Tumor size may be determined by caliper measurements. […] Log volume data can be analyzed with two-way repeated measures ANOVA by time and treatment using SAS PROC MIXED software (SAS Institutes Inc, Cary, N.C.). […]

A further assay concerns H1993. The experiment in a line: Cell killing, H1993. In kind it is cell-based, human. Set-up: key: Sensitive; Resistant. The conditions noted are these: H1993, NSCLC. Here is the method: as §1, §2
The next assay concerns HCT-116. Kind of assay: Cell killing, HCT-116. In kind it is cell-based, human. On the set-up: key: Sensitive; Resistant. The conditions noted are these: HCT-116, Colorectal Ca. Here is the method:
as §1, §2

The subject of the next assay is HT-29 cells. Kind of assay: HT-29 cell-killing assay. In kind it is cell-based, human. Set-up: key to Sensitive/ Resistant: Sensitive; Resistant. Here is the method:
Therefore, the HT-29 cell line may be used to determine if test MET-ADCs can kill MET overexpressing tumor cells in vitro.
as §1, §2

The test system of the next assay is Hs746T xenografts. The experiment in a line: Hs746T gastric cancer xenograft model. In kind it is in vivo, mouse. Particulars: 3 mg/kg once per week for 4 weeks. Here is the method: as §3, §4
The test system of another assay is T47D. Kind of assay: Cell killing, T47D. The conditions noted are these: Breast Ca. In kind it is cell-based, human. On the set-up: key: Sensitive; Resistant. Here is the method:
as §1, §2

Regarding “MET-ADC#1: emibetuzumab lysine-conjugated via (2,5-dioxopyrrolidin-1-yl) 2-azidoacetate and Octyne-β-Glucn-MMAE”, the “Sensitive/ Resistant” value was “R” with RPTEC; “S” in the assay with Aspc-1; “S” with H1993; “R” in the assay on HCT-116; “S” with HT-29 cells (HT29, Colorectal Ca); “R” in the assay on T47D. The antitumor efficacy result was “initial tumor regression and stable disease status” in the assay on Calu-6 xenograft; “significantly greater antitumor efficacy than the IgG4 Lys-MMAE control treatments; also recorded: durable and complete tumor regression” in the assay with Hs746T xenografts. The “cell killing activity in HT-29 cells” value in the assay with HT-29 cells (HT-29 cells) was “kills MET expressing HT-29 tumor cells better than the parental anti-MET antibody, emibetuzumab, free MMAE, or a combination of emibetuzumab and free MMAE; also recorded: highly potent in killing HT-29 cells”. Further, the “greater potency in killing HT-29 tumors cells as compared to ABBV-399” value in the assay with HT-29 cells (HT-29 cells) came out at 200 fold.

(Values after patent US11167039B2, “MET antibody drug conjugates” (priority 2016, dated 2021).)
